Measured values taken from patent US4360595A, “Fermentation process for producing anandimycin” (Bristol-Myers Company, priority 1981, dated 1982).
Converted amounts (≈) assume the structure as drawn.

Key:
[1] = solubility in organic solvents (trituration, chromatography); format: physicochemical
Text: The solids obtained from extraction of the whole broth are next washed with diethyl ether to remove any lard oils and antifoams used in the fermentation. […] To remedy this problem a simple organic solvent trituration scheme was developed which effects a gross separation of the yellow pigments and another class of antitumor agents produced by strain C-22,437 (rachelmycin) from anandimycin on the basis of differential solubility. […] The first step involves trituration of the extraction solids with acetone. The resulting filtrate contains another antitumor substance which is active in the lysogenic bacteria induction assay and the P388 mouse tumor system (rachelmycin). The insoluble solid from the acetone trituration contains the yellow pigments along with a complex of anandimycin and another similar compound. The second phase of the process involves trituration with a ternary organic solvent system 40:30:30(^v/v) chloroform:methanol:tetrahydrofuran. The soluble fraction contains the yellow pigments. […] Substantially pure anandimycin is separated from the enriched mixture using high pressure liquid chromatography on silica gel as described in more detail below.
The analytical solvent system routinely used is hexane:ethyl acetate:isopropanol (30:70:3^v /v) along with 0.1 to 0.4 part water depending on the relative activity state of the silica gel surface in the column being used. If tailing effects are observed, then typically one increases the water content of the solvent system within the 0.1-0.4 part range to improve peak symmetry, thereby permitting a more quantitative analysis.
The preparative solvent system is ethyl acetate:isopropanol:water (87:13:0.5^v /v). […] A shave-recycle method involves increasing the effective silica gel column length through the employment of continuous multiple pass chromatography of the anandimycin-component II band. […] Initial chromatography gave anandimycin enriched to 70-85% purity. Accumulated solids are rechromatographed to yield material of >90% purity. […]

P-388 leukemia = assay: transplantable mouse tumor P-388 leukemia; format: in vivo, mouse (CDF1 female mice); details: for MST: control 9.0 days; for Effect MST % T/C: ≥ 125 significant
Procedure: Anandimycin was also tested against the transplantable mouse tumor P-388 leukemia. The methodology used generally followed the protocols of the National Cancer Institute (Cancer Chemotherapy Rep., Part 3, 3, 1-103 (1972). The essential experimental details are given at the bottom of the following table. Two different dose regimens are tested: single dose on day 1 and three doses given on days 1, 5 and 9. The optimal dose was 64 mg/kg. single dose.
Tumor inoculum: 10^6 ascites cells implanted
Host: CDF1 .female. mice
Evaluation: MST = median survival
Effect: % T/C = (MST treated/MST control) ×
Criteria: % T/C ≥ 125 considered significant antitumor
Tox: […] 4/6 mice alive on day 5
AWC = average weight gain (treatedcontrol) in grams (on day 4)

Ser. marcescens 20019 = assay: in vitro MIC, standard tube dilution procedure; format: cell-based; details: Serratia marcescens, 20019, read-out: Minimum Inhibitory Concentration
Procedure: (§1) The in vitro minimum inhibitory concentrations (MIC) of anandimycin were determined against a variety of microorganisms using the standard tube dilution procedure.

K. pneumoniae 15130 = assay: in vitro MIC, standard tube dilution procedure; format: cell-based; details: Klebsiella pneumoniae, 15130, read-out: Minimum Inhibitory Concentration
Procedure: as §1

E. coli 20341-1 = assay: in vitro MIC, standard tube dilution procedure; format: cell-based; details: Escherichia coli, 203411, read-out: Minimum Inhibitory Concentration
Procedure: as §1

Staph. aureus 9587 = assay: in vitro MIC, standard tube dilution procedure; format: cell-based; details: Staphylococcus aureus, 9587, read-out: Minimum Inhibitory Concentration
Procedure: as §1

Pr. mirabilis 9900 = assay: in vitro MIC, standard tube dilution procedure; format: cell-based; details: Proteus mirabilis, 9900, read-out: Minimum Inhibitory Concentration
Procedure: as §1

Pr. vulgaris 21559 = assay: in vitro MIC, standard tube dilution procedure; format: cell-based; details: Proteus vulgaris, 21559, read-out: Minimum Inhibitory Concentration
Procedure: as §1

Str. pyogenes 9604 = assay: in vitro MIC, standard tube dilution procedure; format: cell-based; details: Streptococcus pyogenes, 9604, read-out: Minimum Inhibitory Concentration
Procedure: as §1

Ps. aeruginosa 9843A = assay: in vitro MIC, standard tube dilution procedure; format: cell-based; details: Pseudomonas aeruginosa, 9843A, read-out: Minimum Inhibitory Concentration
Procedure: as §1

E. coli 15119 = assay: in vitro MIC, standard tube dilution procedure; format: cell-based; details: Escherichia coli, 15119, read-out: Minimum Inhibitory Concentration
Procedure: as §1

[2] = test system: Staph. aureus (penicillin-resistant) 9606; assay: in vitro MIC, standard tube dilution procedure; format: cell-based; details: Staphylococcus aureus, read-out: Minimum Inhibitory Concentration
Procedure: as §1

Str. faecalis 20,588 = assay: in vitro MIC, standard tube dilution procedure; format: cell-based; details: Enterococcus faecalis, read-out: Minimum Inhibitory Concentration
Procedure: as §1

C=Cc1cc(OC)c2c(c1)c(=O)oc1c2cc(OC)c2c(O)ccc(C3OC(C(C)O)C(O)C3O)c21 (stereo not shown) [Anandimycin]
solubility in trituration solvents ([1]; acetone, 40:30:30 chloroform:methanol:tetrahydrofuran): insoluble
solubility in chromatography solvents ([1]; solvents for (preparative) chromatography): poor solubility
AWC Day 4 (P-388 leukemia; d.1,5&9, IP, 0.5 mg/kg/inj.): -0.1 gm.
Survivors Day 5(30) (P-388 leukemia; d.1,5&9, IP, 0.5 mg/kg/inj.): 6/6
MST (P-388 leukemia; d.1,5&9, IP, 0.5 mg/kg/inj.): 9.0 days
Effect MST % T/C (P-388 leukemia; d.1,5&9, IP, 0.5 mg/kg/inj.): 100%
AWC Day 4 (P-388 leukemia; d.1,5&9, IP, 1 mg/kg/inj.): +0.6 gm.
Survivors Day 5(30) (P-388 leukemia; d.1,5&9, IP, 1 mg/kg/inj.): 6/6
MST (P-388 leukemia; d.1,5&9, IP, 1 mg/kg/inj.): 9.0 days
Effect MST % T/C (P-388 leukemia; d.1,5&9, IP, 1 mg/kg/inj.): 100%
AWC Day 4 (P-388 leukemia; d.1,5&9, IP, 2 mg/kg/inj.): +0.2 gm.
Survivors Day 5(30) (P-388 leukemia; d.1,5&9, IP, 2 mg/kg/inj.): 6/6
MST (P-388 leukemia; d.1,5&9, IP, 2 mg/kg/inj.): 9.0 days
Effect MST % T/C (P-388 leukemia; d.1,5&9, IP, 2 mg/kg/inj.): 100%
AWC Day 4 (P-388 leukemia; d.1,5&9, IP, 4 mg/kg/inj.): +0.7 gm.
Survivors Day 5(30) (P-388 leukemia; d.1,5&9, IP, 4 mg/kg/inj.): 6/6
MST (P-388 leukemia; d.1,5&9, IP, 4 mg/kg/inj.): 10.5 days
Effect MST % T/C (P-388 leukemia; d.1,5&9, IP, 4 mg/kg/inj.): 117%
AWC Day 4 (P-388 leukemia; d.1,5&9, IP, 8 mg/kg/inj.): +0.2 gm.
Survivors Day 5(30) (P-388 leukemia; d.1,5&9, IP, 8 mg/kg/inj.): 6/6
MST (P-388 leukemia; d.1,5&9, IP, 8 mg/kg/inj.): 13.5 days
Effect MST % T/C (P-388 leukemia; d.1,5&9, IP, 8 mg/kg/inj.): 150%
AWC Day 4 (P-388 leukemia; d.1,5&9, IP, 16 mg/kg/inj.): 0 gm.
Survivors Day 5(30) (P-388 leukemia; d.1,5&9, IP, 16 mg/kg/inj.): 5/5
MST (P-388 leukemia; d.1,5&9, IP, 16 mg/kg/inj.): 13.0 days
Effect MST % T/C (P-388 leukemia; d.1,5&9, IP, 16 mg/kg/inj.): 144%
AWC Day 4 (P-388 leukemia; d.1, IP, 0.5 mg/kg/inj.): -0.1 gm.
Survivors Day 5(30) (P-388 leukemia; d.1, IP, 0.5 mg/kg/inj.): 6/6
MST (P-388 leukemia; d.1, IP, 0.5 mg/kg/inj.): 9.0 days
Effect MST % T/C (P-388 leukemia; d.1, IP, 0.5 mg/kg/inj.): 100%
AWC Day 4 (P-388 leukemia; d.1, IP, 1 mg/kg/inj.): -0.1 gm.
Survivors Day 5(30) (P-388 leukemia; d.1, IP, 1 mg/kg/inj.): 6/6
MST (P-388 leukemia; d.1, IP, 1 mg/kg/inj.): 9.0 days
Effect MST % T/C (P-388 leukemia; d.1, IP, 1 mg/kg/inj.): 100%
AWC Day 4 (P-388 leukemia; d.1, IP, 2 mg/kg/inj.): -0.2 gm.
Survivors Day 5(30) (P-388 leukemia; d.1, IP, 2 mg/kg/inj.): 5/5
MST (P-388 leukemia; d.1, IP, 2 mg/kg/inj.): 10.0 days
Effect MST % T/C (P-388 leukemia; d.1, IP, 2 mg/kg/inj.): 111%
AWC Day 4 (P-388 leukemia; d.1, IP, 4 mg/kg/inj.): -0.9 gm.
Survivors Day 5(30) (P-388 leukemia; d.1, IP, 4 mg/kg/inj.): 6/6
MST (P-388 leukemia; d.1, IP, 4 mg/kg/inj.): 10.0 days
Effect MST % T/C (P-388 leukemia; d.1, IP, 4 mg/kg/inj.): 111%
AWC Day 4 (P-388 leukemia; d.1, IP, 8 mg/kg/inj.): -0.2 gm.
Survivors Day 5(30) (P-388 leukemia; d.1, IP, 8 mg/kg/inj.): 6/6
MST (P-388 leukemia; d.1, IP, 8 mg/kg/inj.): 11.5 days
Effect MST % T/C (P-388 leukemia; d.1, IP, 8 mg/kg/inj.): 128%
AWC Day 4 (P-388 leukemia; d.1, IP, 16 mg/kg/inj.): -0.6 gm.
Survivors Day 5(30) (P-388 leukemia; d.1, IP, 16 mg/kg/inj.): 6/6
MST (P-388 leukemia; d.1, IP, 16 mg/kg/inj.): 11.0 days
Effect MST % T/C (P-388 leukemia; d.1, IP, 16 mg/kg/inj.): 122%
AWC Day 4 (P-388 leukemia; d.1, IP, 32 mg/kg/inj.): -0.6 gm.
Survivors Day 5(30) (P-388 leukemia; d.1, IP, 32 mg/kg/inj.): 6/6
MST (P-388 leukemia; d.1, IP, 32 mg/kg/inj.): 13.0 days
Effect MST % T/C (P-388 leukemia; d.1, IP, 32 mg/kg/inj.): 144%
AWC Day 4 (P-388 leukemia; d.1, IP, 64 mg/kg/inj.): -0.3 gm.
Survivors Day 5(30) (P-388 leukemia; d.1, IP, 64 mg/kg/inj.): 6/6
MST (P-388 leukemia; d.1, IP, 64 mg/kg/inj.): 14.5 days
Effect MST % T/C (P-388 leukemia; d.1, IP, 64 mg/kg/inj.): 161%
optimal dose (P-388 leukemia; single dose): 64 mg/kg
MIC (Ser. marcescens 20019): > 63 µg/mL
MIC (K. pneumoniae 15130): > 63 µg/mL
MIC (E. coli 20341-1): > 63 µg/mL
MIC (Staph. aureus 9587): 0.06 µg/mL (≈ 0.121 µM)
MIC (Pr. mirabilis 9900): > 63 µg/mL
MIC (Pr. vulgaris 21559): 2 µg/mL (≈ 4.04 µM)
MIC (Str. pyogenes 9604): 0.13 µg/mL (≈ 0.263 µM)
MIC (Ps. aeruginosa 9843A): > 63 µg/mL
MIC (E. coli 15119): > 63 µg/mL
MIC [2]: 0.25 µg/mL (≈ 0.506 µM)
MIC (Str. faecalis 20,588): 0.016 µg/mL (≈ 0.0324 µM)
